Measured values as given in patent US10550120B2, “Indole alkaloid compound having immune checkpoint inhibitory action” (TOHOKU UNIVERSITY, priority 2016, dated 2020).

Columns and labels:
CTLA-4 = assay: Intracellular staining of MT2 cells with fluorescence-labeled anti-CTLA-4 antibody and measurement by flow cytometry; type: cell-based, human; details: 25.0 μmol/L, 48±2 hours; for Peak MFI of CTLA-4: isotype IgG2a subtracted, average of n=3; for activity at 25 µM: Homo sapiens, 48 h, DMSO control = 100%, read-out: % against control (CTLA-4 expression)
Experimental: (§1) MT2 cells from human adult T-cell leukemia were used. Leukemia cells of human adult T-cell leukemia (ATL) express CD4 and CD25 molecules on the cell surface and are considered to be derived from Treg (Chen S. et al., International Immunology 18:269-277 (2005)). MT2 cells were used in experiments as models of Treg since the cells are CD4 positive, CD25 positive, and FOXP3 positive celles derived from ATL.
(§2) The example compounds (compounds 1-17) of the present invention were dissolved in dimethylsulfoxide (DMSO) to prepare each 50 mmol/L solution, which was preserved at −80° C.
(1) MT2 cells were suspended in RPMI1640 medium (hereinafter referred to as “the medium”) supplemented with 10% fetal calf serum (FCS) and 1° penicillin/streptomycin (P/S) to give 3×10^5 cells/mL suspension and 3 mL of the suspension was added to each well of a 6-well plate. To each well were added 0.6 or 1.2 μL of the test compound solutions (compounds 1, 2, and 4), 0.75 or 1.5 μL of the test compound solution (compound 9), and 1.5 μL of the test compound solutions (compounds 8 and 10-17), and the cell cultures were incubated in a CO2 gas incubator (under 37° C., 5% CO2) and cultured for 48±2 hours. As a control of compound 1, 2 and 4, only 1.2 μL of DMSO was added to the well. In addition, as a control of compound 8-17, only 1.5 μL of DMSO was added to the well.
(2) A piece of the cell culture was sampled to count cells with a cell counter (BIO RAD TC-20). The cell culture was centrifuged at 300×g for 5 min, and the supernatant was removed. The residue was suspended in phosphate buffered saline (supplemented with 1% bovine serum albumin (BSA), without calcium and magnesium) (1% BSA/PBS) to adjust the concentration of cells to 5-10×10^6 cells/mL.
(3) To 5 ml tube, each 50 μL of the cell suspension was added.
(4) Foxp3/Transcription Factor Fix/Perm Concentrate (4×) (Cat. No. TNB-1020-L050) (Solution A) in FOXP3/Transcription Factor Staining kit (TONBO biosciences) was diluted with Foxp3/Transcription Factor Fix/Perm Diluent (1×) (Cat. No. TNB-1022-L160) (for dilution of Solution A) to prepare 1× Solution A.
(5) 1 mL of 1× Solution A was added to each tube and mixed by gentle pipetting. Subsequently, it was left at room temperature for 30 min, centrifuged at 300×g for […], and the supernatant was discarded.
(6) Flow Cytometry Perm Buffer (10×) (Cat. No. TNB-1213-L150) (Solution B) in the kit was diluted 10-fold with water to prepare 1× Solution B.
(7) 2 mL of 1× Solution B was added to the tube and centrifuged at 300×g for 5 min. The supernatant was discarded. 2 μL of 2% normal mouse serum/PBS was added to the tube and the tube was gently pipetted. Subsequently, it was left at room temperature for 15 min.
(8) In the CTLA-4 measurement, 20 μL of anti-CTLA-4 antibody (BECKMAN COULTER, CD152-PE clone BN13I M2282) or mouse IgG2a (BECKMAN COULTER, IgG2a (Mouse)-PE A09142) for the control was added to the tube and the tube was gently stirred. Subsequently, it was left in the dark at room temperature for 30 min, and 2 mL of the 1× Solution B was added thereto, the mixture was centrifuged at 300×g for 5 min, and the supernatant was discarded. 2 mL of the 1× Solution B was added to the tube again, the mixture was centrifuged at 300×g for 5 min, and the supernatant was discarded.
(9) Within 2 hours after the solution in the tube was suspended in 0.5 mL of 1% BSA/PBS, and the fluorescence at 577 nm was measured with 488 nm excitation with a flow cytometer (Sony: Cell Sorter SH800). The results were analyzed with software, FlowJo (Tree Star Inc.). The mean peak fluorescence intensity (MFI) of CTLA-4 and mean peak fluorescence intensity of isotype control IgG2a were calculated from histgrams of the measured fluorescence intensity and number of cells, and mean fluorescence intensity of IgG2a was subtracted from that of CTLA-4. Experiments were conducted in n=3, and the average values were shown.

IL-10 = assay: Measurement of human IL-10 amount in culture supernatant of MT2 cells with ELISA kit (Test 1); type: cell-based; details: 48±2 hours
Experimental: as §1, §2
The amount of IL-10 production in the control and the example compounds was measured to evaluate the inhibitory effect on IL-10 production of the example compounds of the present invention.
(1) MT2 cells are suspended in RPMI1640 medium (hereinafter referred to as “the medium”) supplemented with 10% fetal calf serum (FCS) and 1% penicillin/streptomycin (P/S) to give 3×10^5 cells/mL suspension, and 1 mL of the suspension was added to each well of a 24-well plate. […] The cell cultures were incubated 48±2 hours in a CO2 incubator (under a condition of 37° C., 5 CO2). DMSO was diluted 50-fold with the medium, and 20 μL of the diluent was added to the well to make a control of compounds 1-7. In addition, DMSO was diluted 50-fold with the medium, and 25.0 μL of the diluent was added to the well to make a control of compounds 8-17.
(2) A piece of the cell culture was sampled to count cells with a cell counter (BIO RAD TC-20). The cell culture was centrifuged at 300×g for 5 minutes and the supernatant was collected as a sample for IL-10 measurement. When not measured within a day, it was preserved in a freezer at −80° C.
(3) Human IL-10 ELISA kit II (BD OptEIA) was used on the measurement. The kit contains wells treated with anti-IL-10 antibody (8 wells/strip), Standard/Sample diluent, vials comprising freeze-dried IL-10 Standard (1280 pg/vial), ELISA diluent, 20× Wash Buffer, Detection antibody, Enzyme Concentrate, TMB One Step Substrate Reagent, Stop Solution, and cover sheets.
(4) To a vial containing IL-10 Standard was added […] Standard/Sample diluent, and the vial was stood at room temperature for 15 minutes to be dissolved (Standard sample stock solution 1L-10 concentration: 500 pg/mL).
(5) Standard samples in each concentration for making a standard curve were prepared as follows. Firstly, to 300 μL of the medium was added 300 μL of the standard sample stock solution, and the mixture was mixed with a Voltex mixer (250 pg/mL). Next, 300 μL of the standard sample of 250 pg/mL was added to 300 μL of the medium and the mixture was mixed with a Voltex mixer (125 pg/mL). The same procedures were successively repeated to prepare standard solutions of 62.5, 31.25, 15.625, and 7.8125 pg/mL. As 0 pg/mL standard solution, the medium was used.
(6) A kit containing wells treated with anti-IL-10 antibody (8 wells/strip) was warmed to room temperature and 50 μL of ELISA diluent in the kit was added into each well.
(7) To each well containing ELISA diluent, 100 μL of the standard samples of each concentration and each test sample (diluded 50-100 fold with medium) were added.
(8) After the wells were sealed with a cover sheet and gently tapped, they were left at room temperature for 2 hours.
(9) 20× Wash Buffer was diluted 20-fold with water to prepare 1× Wash Buffer.
(10) After the reaction was done for 2 hours, the solutions in each well were aspirated and washed 5 times with 300 μL of 1× Wash Buffer.
(11) After Enzyme Concentrate (4 μL per 8 wells) was added to Detection antibody (1 ml per 8 wells), the solution was mixed by a Vortex mixer and then a necessary amount of Working Detector was prepared.
(12) 100 μL of Working Detector was added to each well, covered with a cover sheet, and the wells were left at room temperature for an hour.
(13) After the reaction was done for an hour, the solutions in wells were aspirated and washed 7 times with 300 μL of 1× Wash Buffer. […]

[1] = Homo sapiens, 48 h, 12.5 μmol/L, DMSO control = 100%, read-out: % against control (IL-10 production)
[2] = Homo sapiens, 48 h, 25.0 μmol/L, DMSO control = 100%, read-out: % against control (IL-10 production)

SMILES	Peak MFI of CTLA-4 (CTLA-4)	activity at 25 µM (CTLA-4) [%]	IL-10 (ng/10^6 cells) ± standard deviate (n = 3) (IL-10; 12.5 μmol/L) [ng/10^6 cells]	IL-10 (ng/10^6 cells) ± standard deviate (n = 3) (IL-10; 25.0 μmol/L) [ng/10^6 cells]	activity at 12.5 µM (IL-10; [1]) [%]	activity at 25 µM (IL-10; [2]) [%]	IL-10 (ng/10^6 cells) ± standard deviate (n = 3) (IL-10; 10 μmol/L) [ng/10^6 cells]	IL-10 (ng/10^6 cells) ± standard deviate (n = 3) (IL-10; 20 μmol/L) [ng/10^6 cells]	activity at 10 µM (IL-10; Homo sapiens, 48 h, 10 μmol/L, DMSO control = 100%, read-out: % against control (IL-10 production)) [%]	activity at 20 µM (IL-10; Homo sapiens, 48 h, 20 μmol/L, DMSO control = 100%, read-out: % against control (IL-10 production)) [%]
COC(=O)C1=CN2CCc3c([nH]c4c(C)cccc34)[C@@H]2[C@@H]2[C@@H](C)[C@@H](O)C[C@H]12 [Compound 11]	602	59.5	7.4 ± 0.2	5.6 ± 0.3	78.2	55.4				
COC(=O)C1=CN(CCc2c[nH]c3ccccc23)C(O)[C@H]2[C@@H]1C=CC2(O)CO (stereo partly shown) [Compound 6]							17.6 ± 0.7	15.2 ± 0.4	95.2	81.8
COC(=O)C1=CN2CCc3c([nH]c4ccc(Br)cc34)[C@@H]2[C@@H]2[C@@H](C)[C@@H](O)C[C@H]12 [Compound 13]	775	91.6	7.7 ± 0.6	4.2 ± 0.2	81.2	44				
COC(=O)C1=CN2CCc3c([nH]c4ccc(OCc5ccccc5)cc34)[C@@H]2[C@@H]2[C@@H](C)[C@@H](O)C[C@H]12 [Compound 15]	284	37.7	6.5 ± 0.2	0.6 ± 0.4	59.3	5.1				
COC(=O)C1=CN2CCc3c([nH]c4ccc(C)cc34)[C@@H]2[C@@H]2[C@@H](C)[C@@H](O)C[C@H]12 [Compound 14]	450	53	7.4 ± 0.3	4.3 ± 1.0	67.7	39.2				
